{
  "source": "patent US7700101B2",
  "about": "“Reagents and method for modulating Dkk-mediated interactions” (Wyeth, priority 2001, dated 2010)",
  "molecules": {"B1": {"name": "Dkk-1-AP: Dkk-1 modified with alkaline phosphatase (protein)", "chain": "TLNSVLNSNAIKNLPPPLGGAAGHPGSAVSAAPGILYPGGNKYQTIDNYQPYPCAEDEECGTDEYCASPTRGGDAGVQICLACRKRRKRCMRHAMCCPGNYCKNGICVSSDQNHFRGEIEETITESFGNDHSTLDGYSRRTTLSSKMYHTKGQEGSVCLRSSDCASGLCCARHFWSKICKPVLKEGQVCTKHRRKGSHGLEIFQRCYCGEGLSCRIQKDHHQASNSSRLHTCQRH", "modifications": "left off: large carriers", "notes": "Dkk-1 modified with alkaline phosphatase"}, "B2": {"name": "Dkk-1 mutant (C220A): Dkk-1 mutant where cysteine 220 was changed to alanine (protein)", "chain": "TLNSVLNSNAIKNLPPPLGGAAGHPGSAVSAAPGILYPGGNKYQTIDNYQPYPCAEDEECGTDEYCASPTRGGDAGVQICLACRKRRKRCMRHAMCCPGNYCKNGICVSSDQNHFRGEIEETITESFGNDHSTLDGYSRRTTLSSKMYHTKGQEGSVCLRSSDCASGLCCARHFWSKICKPVLKEGQVATKHRRKGSHGLEIFQRCYCGEGLSCRIQKDHHQASNSSRLHTCQRH"}},
  "key": {"[1]": {"test_system": "Wnt pathway (TCF-luciferase reporter)", "assay": "TCF-luciferase assay of LRP5 variants in U2OS cells", "format": "cell-based, human", "settings": "for susceptibility to modulation by Dkk / activation of TCF-luciferase reporter construct: U2OS cells; for susceptibility to modulation by Dkk: in the presence of Dkk1 and Wnt1; for activation of TCF-luciferase reporter construct: in the presence of Wnt", "source_text": "Site-directed mutants of LRP5 were generated in the full-length human LRP5 cDNA using the QuikChange XL-Site-Directed Mutagenesis Kit (catalog #200516, Stratagene, La Jolla, Calif.) following the manufacturers protocol. The mutant sequences were introduced using complementary synthetic oligonucleotides:\nAll constructs were sequence verified to ensure that only the engineered modification was present in the gene. Once verified, each variant was functionally evaluated in the TCF-luciferase assay in U2OS cells (essentially as described in Example 7. Other functional evaluations could also be performed, such as the Xenopus embryo assay (essentially as described in Example 6), or other assays to evaluate Wnt signaling, Dkk modulation, or anabolic bone effect. Binding of these mutants to Dkk, LRP-interacting proteins, Dkk-interacting proteins, or peptide aptamers to any of the preceding could also be investigated in a variety of ways such as in a two-hybrid system (such as in yeast as described in this application), or other methods.\nU2OS human osteosarcoma cells were also utilized. U2OS cells (ATCC) were seeded into 96-well plates at 30,000 cells per well in 200 ul of the growth media (McCoy's 5A) containing 10% (v/v) heat-inactivated FBS, 1X penicillin streptomycin, and 1×Glutamax-1, and incubated overnight at 37° C. The following day, the media was replaced with OptiMEM (Invitroge) and cells were transfected using […] (as described by the manufacturer, Invitrogen) with. 0.005 μg/well of LRP5, HBM, LRP6 or contoI plasmid DNA (empty vector pcDNA3.1) and either Wnt1 (0.0025 ug/well) or Wnt3a (0.0025 ug/well) plasmid DNA. In addition, the 16x-(AS) TCF-TK-firefly-luciferase (Ramesh Bhat, WHRI, Wyeth) and control TK-renilla luciferase (Promega Corp.) were co-transfected at 0.3 ug/well and 0.06 ug/well respectively in all experiments. […] In other experiments, cells were co-transfected with 0.005 μg/well of LRP5, 0.0025 ug/well of Wnt1 or Wnt3 a (using […] of a control pcDNA3.1) with LRP5-interacting aptamers (0.05 ug/well). Cells were cultured for an additional 18-20 hours at 37° C. Culture medium was removed. Cells were then lysed with 100 μl/well of 1X Passive Lysis Buffer (PLB) of Dual Luciferase Reagent kit (DLR-kit-Promega Corp.) 20 μl of the lysates were combined with LARII reagent of DLR-kit and assayed for TCF-firefly luciferase signal in Top Count (Packard) instrument. After measuring the Firefly readings, 100 μl of the “Stop and Glo” reagent of DLR kit that contains a quencher and a substrate for renilla luciferase was added into each well. Immediately the renilla luciferase reading was measured using the Top Count (Packard) Instrument. The ratios of the TCF-firefly luciferase to control renilla readings were calculated for each well and the mean ratio of triplicate or more wells was expressed in all data."}, "endogenous LRP5/6": {"test_system": "endogenous LRP5/6", "assay": "Cell-based TCF reporter high-throughput assay, endogenous LRP5/6", "parameters": "species or system human", "settings": "U2OS cells", "source_text": "To develop a high throughput assay, the TCF-luciferase assay described in Example 7 was modified utilizing low level expression of endogenous LRP5/6 in U2OS and HEK293 cells. […] Using U2OS (human osteosarcoma) and HEK293 (ATCC) cells, the TCF-luciferase and tk-Renilla reporter element constructs were co-transfected along with Wnt3a/1 and Dkk."}, "LRP5 LBD": {"test_system": "LRP5 LBD", "sequence (as listed by the source)": "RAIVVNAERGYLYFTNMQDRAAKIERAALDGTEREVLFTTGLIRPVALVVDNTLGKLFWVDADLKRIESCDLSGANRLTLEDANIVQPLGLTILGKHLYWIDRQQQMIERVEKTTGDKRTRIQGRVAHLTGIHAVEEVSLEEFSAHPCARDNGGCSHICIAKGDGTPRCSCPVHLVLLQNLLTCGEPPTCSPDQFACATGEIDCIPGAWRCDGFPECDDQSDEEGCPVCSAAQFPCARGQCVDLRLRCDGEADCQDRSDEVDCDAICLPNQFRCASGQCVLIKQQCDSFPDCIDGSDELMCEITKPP", "assay": "Yeast-2 hybrid interaction trap LRP5 LBD-LexA / Gal4AD-Dkk", "format": "binding", "settings": "FIG. 18", "source_text": "Small molecule inhibitors (or partial inhibitors) of the Dkk-LRP interaction may be an excellent osteogenic therapeutic. One way to investigate this important protein-protein interaction is using Y2H techniques substantially as described above and as is well known in the art. […] This interaction is quantitated using a reporter element known in the art, e.g., LacZ or luciferase, which is only activated when bait and prey interact. The Y2H assay is used to screen for compounds which modulate the LRP-Dkk interaction. Such a modulation would be visualized by a reduction in reporter element activation signifying a weaker or disrupted interaction, or by an enhancement of the reporter element activation signifying a stronger interaction. Thus, the Y2H assay can be used as a high-throughput screening technique to identify compounds which disrupt or enhance Dkk interaction with LRP5/LRP6/HBM, which may serve as potential therapeutics.\nFor example, the Interaction Trap methodology can be used as follows. […] With the LRP5LBD-LexA bait and the Gal4AD-Dkk prey, over a 20-fold activation of a lacZ reporter (under the control of a single LexA operator) was detected over the background. […] As a result, small molecules may be identified that modulate this interaction between LRP and Dkk."}, "LRP6": {"biological_target": "LRP6 (Homo sapiens, UniProt O75581)", "sequence (O75581 20-1613, species assumed)": "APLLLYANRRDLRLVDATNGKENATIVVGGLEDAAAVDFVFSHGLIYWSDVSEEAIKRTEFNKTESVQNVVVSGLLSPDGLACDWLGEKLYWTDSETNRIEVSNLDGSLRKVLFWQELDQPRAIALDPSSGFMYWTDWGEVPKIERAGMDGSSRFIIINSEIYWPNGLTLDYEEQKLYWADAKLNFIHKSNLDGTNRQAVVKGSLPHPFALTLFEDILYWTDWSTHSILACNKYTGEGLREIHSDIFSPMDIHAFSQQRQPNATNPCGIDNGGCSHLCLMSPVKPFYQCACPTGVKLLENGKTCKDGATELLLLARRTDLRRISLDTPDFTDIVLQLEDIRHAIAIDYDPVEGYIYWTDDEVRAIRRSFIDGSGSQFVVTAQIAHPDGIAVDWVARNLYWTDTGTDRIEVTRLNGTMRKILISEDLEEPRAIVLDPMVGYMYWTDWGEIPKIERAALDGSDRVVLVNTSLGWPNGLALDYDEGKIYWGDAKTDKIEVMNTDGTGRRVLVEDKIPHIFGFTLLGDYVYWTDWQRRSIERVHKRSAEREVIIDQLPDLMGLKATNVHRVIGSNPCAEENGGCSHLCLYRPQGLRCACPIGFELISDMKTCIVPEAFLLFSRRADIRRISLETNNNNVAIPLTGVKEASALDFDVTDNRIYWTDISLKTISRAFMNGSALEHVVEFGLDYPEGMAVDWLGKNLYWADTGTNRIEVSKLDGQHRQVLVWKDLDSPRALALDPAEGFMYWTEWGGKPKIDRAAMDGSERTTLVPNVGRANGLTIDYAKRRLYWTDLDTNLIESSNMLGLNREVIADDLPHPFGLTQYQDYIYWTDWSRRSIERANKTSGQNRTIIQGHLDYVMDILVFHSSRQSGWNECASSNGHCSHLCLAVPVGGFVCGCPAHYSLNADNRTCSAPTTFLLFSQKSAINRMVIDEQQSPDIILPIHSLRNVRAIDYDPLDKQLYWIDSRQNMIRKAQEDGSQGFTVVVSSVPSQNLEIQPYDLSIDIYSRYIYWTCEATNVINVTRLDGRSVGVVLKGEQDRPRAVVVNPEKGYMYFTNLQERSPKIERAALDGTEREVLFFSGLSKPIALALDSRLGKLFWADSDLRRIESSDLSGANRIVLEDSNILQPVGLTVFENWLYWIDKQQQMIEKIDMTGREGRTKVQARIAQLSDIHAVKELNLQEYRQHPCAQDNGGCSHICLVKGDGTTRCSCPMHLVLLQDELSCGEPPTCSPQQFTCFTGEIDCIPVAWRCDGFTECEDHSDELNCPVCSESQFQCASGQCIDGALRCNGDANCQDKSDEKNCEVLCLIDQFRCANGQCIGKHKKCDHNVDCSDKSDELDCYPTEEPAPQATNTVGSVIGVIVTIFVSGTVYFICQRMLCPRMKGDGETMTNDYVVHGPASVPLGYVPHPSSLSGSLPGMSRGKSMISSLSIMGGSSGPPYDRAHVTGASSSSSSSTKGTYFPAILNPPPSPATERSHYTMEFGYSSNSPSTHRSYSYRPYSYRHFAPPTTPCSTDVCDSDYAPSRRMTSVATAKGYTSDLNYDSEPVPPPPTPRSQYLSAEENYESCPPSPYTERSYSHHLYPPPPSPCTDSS", "settings": "Semenov et al.; cited from earlier work"}, "canonical Wnt signaling": {"test_system": "canonical Wnt signaling", "settings": "Semenov et al.; cited from earlier work"}},
  "note": "“Also recorded” adds a separate entry of the source.",
  "data": [
    {"molecule": "G171F: site-directed variant of human LRP5 in propeller 1, introduces a ringed side-chain", "values": [
      {"measurement": "HBM effect / HBM activity", "setting": "[1]", "value": "results in an HBM effect; also recorded: demonstrated HBM activity"},
      {"measurement": "susceptibility to modulation by Dkk", "setting": "[1]", "value": "less susceptible than LRP5"},
      {"measurement": "activation of TCF-luciferase reporter construct", "setting": "[1]", "value": "greater activation of the Wnt pathway than LRP5; also recorded: able to activate the TCF-luciferase reporter construct"}
    ]},
    {"molecule": "M282V: site-directed variant of human LRP5, accessible interior position in blade 1", "values": [
      {"measurement": "HBM effect / HBM activity", "setting": "[1]", "value": "results in an HBM-effect; also recorded: demonstrated HBM activity"},
      {"measurement": "susceptibility to modulation by Dkk", "setting": "[1]", "value": "less susceptible than LRP5"},
      {"measurement": "activation of TCF-luciferase reporter construct", "setting": "[1]", "value": "activation of the Wnt pathway; also recorded: able to activate the TCF-luciferase reporter construct"}
    ]},
    {"molecule": "G171Q: site-directed variant of human LRP5, introduces the propeller 4 residue", "values": [
      {"measurement": "HBM effect / HBM activity", "setting": "[1]", "value": "demonstrated HBM activity"}
    ]},
    {"molecule": "A214V: site-directed variant of human LRP5, position equivalent to 171 in blade 5", "values": [
      {"measurement": "HBM effect / HBM activity", "setting": "[1]", "value": "demonstrated HBM activity"}
    ]},
    {"molecule": "G171K: site-directed variant of human LRP5, introduces a charged side-chain", "values": [
      {"measurement": "HBM effect / HBM activity", "setting": "[1]", "value": "demonstrated HBM activity"}
    ]},
    {"molecule": "B1", "values": [
      {"measurement": "modulation of TCF signal without Wnt DNA transfection", "setting": "endogenous LRP5/6; no Wnt3a/Wnt1 transfection, FIG. 21", "value": "can be modulated"}
    ]},
    {"molecule": "B2", "values": [
      {"measurement": "interaction with LRP5 in yeast", "setting": "LRP5 LBD", "value": "interaction was reduced"},
      {"measurement": "interaction with LRP5 in yeast", "setting": "LRP5 LBD; listed as mutant Dkk-1 (C220A)", "value": "unable to bind to LRP5"},
      {"measurement": "repression of Wnt3a-mediated TCF reporter signaling", "setting": "endogenous LRP5/6; Wnt3a, FIG. 19", "value": "lack of TCF-reporter inhibition"},
      {"measurement": "LRP6 binding", "setting": "LRP6", "value": "abolished LRP6 binding"},
      {"measurement": "repression of Wnt signaling", "setting": "canonical Wnt signaling", "value": "unable to repress Wnt signaling"}
    ]}
  ]
}
